Measurements taken from patent US9993516B2, “Treatment of left ventricular non-compaction and dilated cardiomyopathy by inhibiting melanocortin receptor four” (THE BRIGHAM AND WOMEN'S HOSPITAL, INC., priority 2013, dated 2018).

How the values were obtained:
[1] = system: PRDM16 mutant model as well as wildtype fish; assay: Tail necrosis on norepinephrine incubation of zebrafish embryos; type: in vivo; settings: high doses of norepinephrine
Method: (§1) Working solutions of 10 nM, 100 nM or 1 μM were diluted in 20 ml E3 water and zebrafish embryos were incubated directly after birth. Cardiac function was assessed at 48 hpf as described below.

[2] = system: PRDM16 morphant knockdown embryos and truncation mutant (p.K702X) transgenics; assay: Cardiac function (cardiac output) by video microscopy in PRDM16 morphant and truncation mutant zebrafish embryos, rescue experiments; type: in vivo; settings: for rescue of reduced cardiac output (contractile impairment): injected into yolk sac at one-cell stage, MCL0020, HS014, SU9119 1 μM, JKC363 2 μM, HS024 200 nM, THIQ 1 μM and 500 μM
Method: Morpholinos directed against the translation start codon were 5'-[…] NO: 7) for prdm16 (Gene Tools (Philomath, Oreg.)) and were injected at the one cell stage. Concentrations of 0.2 mM were used. For cardiac-specific overexpression experiments the human PRDM16 truncation mutation ([…]) and the human PRDM16 wildtype were cloned downstream of the cmlc2 promoter into the Tol2kit expression system using Gateway technology (Invitrogen). PRDM16 constructs (15 ng/μl) were co-injected with 10 ng/μl capped Tol2 transposase mRNA into one-cell-stage zebrafish embryos.

PRDM16 mutants = assay: Apoptosis (TUNEL assay) in isolated hearts of PRDM16 mutant zebrafish; type: in vivo; settings: hearts at 48 hpf
Method: For detection of apoptosis hearts from 48 hpf old zebrafish embryos were isolated and fixed in 4% PFA/PBS for 30 min and washed twice in PBS-T for 30 min. TUNEL assay was performed by using the in situ cell detection kit from Roche. Hearts were mounted with ProLong Antifade reagent with DAPI on a slide and confocal images were analyzed using IMAGEJ.

[3] = system: PRDM16 morphant and truncation mutant hearts; assay: Cardiomyocyte proliferation (PCNA staining) in isolated hearts of PRDM16 morphant/mutant zebrafish; type: in vivo; settings: hearts at 48 hpf
Method: For proliferation detection hearts from 48 hpf old zebrafish embryos were isolated and fixed in Prefer fixative (Anatech). The fixed hearts were stained with the primary antibodies rabbit anti-PCNA 1:200 (Abcam) and mouse anti-MF20 1:100 (DSHB), and the secondary antibodies donkey or goat anti-rabbit or mouse Alexa 488 or 546 conjugated (Invitrogen) 1:1,000. Hearts were mounted with ProLong Antifade reagent with DAPI mounting medium on a slide. Confocal images were analyzed using IMAGEJ.

[4] = system: PRDM16 morphant and mutant hearts; assay: Intercellular coupling / conduction velocity by optical mapping of isolated zebrafish embryo hearts; type: in vivo
Method: Intercellular coupling parameters in zebrafish embryo hearts were measured using previously reported techniques. Briefly, hearts were isolated from zebrafish embryos, stained with the transmembrane-potential-sensitive dye di-8-ANEPPS (Invitrogen) and placed into a perfusion chamber that was mounted onto the stage of an inverted microscope. Excitation light from a high-intensity Hg arc lamp was transmitted through a 525/50-nm bandpass filter and reflected onto the preparation via a 565-nm dichroic mirror. Fluorescence emission was filtered by a 685/80-nm bandpass filter and recorded at a rate of 2000 s^-1 by a high-speed CCD camera (CardioCCD-[…]). Single-pixel action potentials were extracted from the fluorescence data and conduction velocities were estimated using an established algorithm. Experiments were repeated at least 2 times with 5 animals. Immunofluorescence, Detection of Apotosis and Mitochondrial Assessment

[5] = system: healthy wildtype zebrafish embryos
Method: MC4 receptor antagonists and agonists were dissolved in 100% DMSO to a stock concentration of 1 mM. Working solutions were diluted in nuclease free water. The concentrations for MCL0020, HS014, SU9119 were 1 μM, for JKC363 2 μM, HS024 200 nM and for the MC4 receptor agonist THIQ 1 μM and 500 μM.
as §1
For analysis of cardiac function embryos were laterally positioned and allowed to acclimate at 24° C. Video microscopy was performed on an Axioplan (Zeiss) upright microscope with a FastCam-PCI high-Speed digital camera (Photron) on top. 1088 frames were digitally captured at identical frame rates (250 frames per second) and magnification (5×). Sequential images were analyzed for heart rate and cardiac output using IMAGEJ and Excel. Experiments were repeated at least 3 times on each occasion using 10 animals.

Molecule | necrosis of the tail [1] | rescue of contractile dysfunction ([2]; PRDM16 mutant model, norepinephrine doses of 10 nM up to 1 μM, incubation in E3 water, 48 hpf) | increased apoptosis (PRDM16 mutants) | rescue of reduced cardiac output (contractile impairment) [2] | decreased cardiomyocyte proliferation (percentage of PCNA positive cells) [3] | disrupted coupling of cells (reduction in impulse propagation velocities) [4] | cardiac output in wildtype embryos ([5]; THIQ 1 μM and 500 μM) | heart rate ([5]; THIQ, FIGS. 8A and 8B, fish group not given)
NC[C@H](O)c1ccc(O)c(O)c1 [norepinephrine] | necrosis of the tail | able to rescue | – | – | – | – | – | –
HS024 | – | – | restored | efficiently rescued | prevented or reduced | rescued | – | –
O=C(N[C@H](Cc1ccc(Cl)cc1)C(=O)N1CCC(Cn2cncn2)(C2CCCCC2)CC1)[C@H]1Cc2ccccc2CN1 [THIQ] | – | – | – | not able to rescue | – | – | decreases cardiac output | not altered
